{"source": "patent US20160051533A1", "about": "“DIAGNOSIS AND PHARMACOLOGICAL TREATMENT OF SEASONAL AFFECTIVE DISORDER AND SYMPTOMS OF SEASONALITY” (Ladd Research LLC, priority 2014, published 2016)", "key": {"OxR2 [1]": {"molecular_target": "T1, OxR2 (Homo sapiens, UniProt O43614)", "T1 sequence (O43614 1-444)": "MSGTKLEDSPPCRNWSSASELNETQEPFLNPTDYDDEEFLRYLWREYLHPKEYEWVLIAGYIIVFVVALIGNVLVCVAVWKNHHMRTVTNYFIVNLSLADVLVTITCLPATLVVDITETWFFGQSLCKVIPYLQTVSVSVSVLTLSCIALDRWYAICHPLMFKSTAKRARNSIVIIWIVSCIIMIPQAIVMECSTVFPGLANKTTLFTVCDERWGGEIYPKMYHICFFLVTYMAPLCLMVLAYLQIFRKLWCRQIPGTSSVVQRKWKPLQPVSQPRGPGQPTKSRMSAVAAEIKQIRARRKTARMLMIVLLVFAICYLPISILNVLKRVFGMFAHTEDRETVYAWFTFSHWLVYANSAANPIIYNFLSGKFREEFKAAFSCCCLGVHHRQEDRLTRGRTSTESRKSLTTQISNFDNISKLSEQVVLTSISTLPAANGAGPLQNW", "conditions": "cited from earlier work"}, "OxR2 [2]": {"molecular_target": "T1, OxR2", "conditions": "read-out: Human OxR2 FLIPR; cited from earlier work"}, "recombinant human OxR1": {"molecular_target": "T2, recombinant human OxR1 (Homo sapiens, UniProt O43613)", "T2 sequence (O43613 1-425)": "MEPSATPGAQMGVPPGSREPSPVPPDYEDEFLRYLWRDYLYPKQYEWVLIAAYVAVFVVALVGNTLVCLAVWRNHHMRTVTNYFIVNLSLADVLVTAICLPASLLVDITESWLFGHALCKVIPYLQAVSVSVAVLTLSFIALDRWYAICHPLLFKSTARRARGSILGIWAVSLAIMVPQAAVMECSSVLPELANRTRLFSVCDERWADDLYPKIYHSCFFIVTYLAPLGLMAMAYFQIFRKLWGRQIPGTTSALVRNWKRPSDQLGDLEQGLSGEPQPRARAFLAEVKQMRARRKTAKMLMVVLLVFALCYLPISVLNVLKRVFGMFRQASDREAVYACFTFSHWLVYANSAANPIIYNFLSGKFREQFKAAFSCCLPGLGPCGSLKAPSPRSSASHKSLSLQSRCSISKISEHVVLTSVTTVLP", "conditions": "cited from earlier work"}, "OxR2 [3]": {"molecular_target": "T1, OxR2", "conditions": "cited from earlier work", "remark": "listed apart in the source"}, "[4]": {"system": "rat ventral tegmental area dopamine neurons", "conditions": "1 micro molar of Almorexant; cited from earlier work"}, "rat OxR1": {"molecular_target": "T3, rat OxR1 (Rattus norvegicus, UniProt P56718)", "T3 sequence (P56718 1-416)": "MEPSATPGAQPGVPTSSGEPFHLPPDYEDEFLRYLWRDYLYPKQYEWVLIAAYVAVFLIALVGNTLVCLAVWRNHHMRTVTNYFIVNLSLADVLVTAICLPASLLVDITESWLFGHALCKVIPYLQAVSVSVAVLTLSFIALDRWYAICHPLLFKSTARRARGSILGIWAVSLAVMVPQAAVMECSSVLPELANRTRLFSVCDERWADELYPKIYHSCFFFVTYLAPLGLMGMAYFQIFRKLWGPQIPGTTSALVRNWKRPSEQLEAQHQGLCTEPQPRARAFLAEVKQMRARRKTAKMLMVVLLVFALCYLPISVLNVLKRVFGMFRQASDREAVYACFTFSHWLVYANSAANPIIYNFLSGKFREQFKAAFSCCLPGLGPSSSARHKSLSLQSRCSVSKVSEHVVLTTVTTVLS", "conditions": "rat OxR1 cell cultures, t=30 min to t=4 hours; cited from earlier work"}, "OxR2 [5]": {"molecular_target": "T1, OxR2", "conditions": "over 4 hours; cited from earlier work"}, "Wistar female rats [6]": {"system": "Wistar female rats", "assay": "Open-field test (OFT) in rats under shifted photoperiods", "conditions": "OFT first session; for effect on the Distance: 100 mg/kg", "description": "Activity was tested in open boxes (open-fields: 100 cm wide, 100 cm long, 50 cm high) made of PVC. Animals' activity was recorded by an electronic videotracking detection system (Viewpoint, France) allowing to detect the distance travelled and the time spent in different parts of the open-field.\nLight intensity was 7-10 Lux at the center of the open-fields.\nAnimals were individually placed for a 10-min session in the center of one quadrant of the open-field.\nParameters analyzed were: • 1) One parameter taken as an index of locomotor-exploratory behavior: • The distance travelled in the open-field. • 2) Two parameters taken as indices of anxiety behavior: • a) % Dist Cent=the percentage of distance travelled in the central 60×60 cm area of the open-field. • b) % Time cent=the percentage of time spent in the central 60×60 cm area of the open-field.\n(§1) A difference was considered: • 1) Statistically significant: p≦0.05. • 2) Close-to-significant difference: 0.05<p≦0.10. • 3) Not significant: p>0.10."}, "Wistar female rats [7]": {"system": "Wistar female rats", "assay": "Marble burying test (MBT) in rats under shifted photoperiods", "description": "The marble burying test can score the ability of rats to remove slight stressors, the marbles, from their environments.\nAnimals of LL-DMSO, LL-Wat, SL-DMSO, SL-Wat and SL-Almo groups were subjected to the marble burying test only once during the period of the study: at the 51st or 52nd days of treatment (see Table 2).\nThe experiment was conducted in twelve Plexiglas transparent open-boxes (42 cm L, 42 cm W, 40 cm H) filled with 5 cm sawdust. Twenty-five clean glass marbles (15 mm diameter) were evenly spaced 5 cm apart on sawdust. The number of marbles buried was counted at the end of the session.\nLight intensity was 30 Lux at the center of the open-boxes.\nAnimals were individually placed for a 5-min session in the experimental apparatus.\nThe number of marbles was counted at the end of the session: • 1) Number of marbles not buried. • 2) Number of marbles ⅓ buried. • 3) Number of marbles ⅔ buried. • 4) Number of marbles totally buried.\nParameters analyzed were: • 1) Unburied=the number of marbles not buried. • 2) ≧⅔ buried=number of marbles ⅔ buried+number of marbles totally buried • 3) Tot buried=number of marbles totally buried."}, "[8]": {"assay": "Body weight / growth rate in rats under shifted photoperiods", "conditions": "for Body weight in percent of initial body weight (d−4): short light (SL) rats, mean", "description": "Rats were weighed three times a week in order to examine the effect of L/D changes and the effects of treatments on the body weight.\nAnimals' body weight was recorded three days per week. The body weight on day d-4 was considered as the initial body weight.\nInitial body weight (BW) between recorded on day d-4, before the initiation of L/D change analyzed by 1-factor ANOVA and Student's t-test.\nTherefore, the following analyses were performed on the BW expressed in percentage of the initial BW. • 2) Effect of L/D condition:\nThe BW expressed in percentage of the initial BW was compared between by ANOVA for repeated measures (from day dl to day d54): • a) On C-Veh, LL-Veh and SL-Veh groups: overall effect. • b) On C-Veh and LL-Veh groups: effect of LL. • c) On C-Veh and SL-Veh groups: effect of SL. • d) On LL-Veh and SL-Veh groups: difference LL vs. SL. • 3) Effect of vehicle:"}, "Wistar female rats [9]": {"system": "Wistar female rats", "assay": "Forced swimming test (FST) in rats under shifted photoperiods", "description": "Animals of CL and LL groups received the vehicles in the same conditions.\nThe same animals were tested by the same experimenter on the two FST sessions. The same proportion of animals of each group was tested by each experimenter.\nThe apparatus used for the experiment consisted of glass cylinders (64 cm high, 25 cm diameter) filled with 30 cm 25° C. water. The experiment was recorded with a camcorder, placed in front of the glass cylinder and connected to a screen, allowing the experimenter to watch the test online.\nLight intensity was 15-20 Lux at the level of glass cylinders.\nThe behavior of the rat was measured on the second trial.\nBehavior was classified as one of three behaviors: • 1) Immobility, defined as floating in the water without struggling and using only small movements to keep the head above water. • 2) Swimming, defined as moving limbs in an active manner, more than required to keep the head above water and causing movement among quadrants of the cylinder. • 3) Climbing, defined as making active movements with forepaws moving in and out of the water, usually directed against the side of the cylinder. Parameters analyzed were:\n1) Imo=the immobility time.\n2) Swm=the swimming time.\n3) Clb=the climbing time.\nA depressive-like profile is indicated by an increase of the immobility time and a decrease of either the swimming time or the climbing time. Conversely, an antidepressant-like effect is indicated by a decrease of the immobility time and an increase of either the swimming time or the climbing time.\nas §1"}, "Wistar female rats [10]": {"system": "Wistar female rats", "assay": "Elevated-plus maze (EPM) test in rats under shifted photoperiods", "excerpt": "Animals were subjected to the elevated-plus maze (EPM) test only once during the period of the study: at the 43th, 44th or 45th days of treatment (see Table 2).\nThe apparatus consisted of a plus-shaped maze, elevated 50 cm from the floor, with two opposite open arms, 50×10 cm, crossed at right angles by two arms of the same dimensions, but enclosed by 40-cm-high black opaque walls with an open roof. In addition a 1-cm-high edge made of Plexiglas surrounded the open arms to avoid falls.\nLight intensity was 10 Lux at the level of open arms.\nThe experiment was recorded with a camcorder, placed 1.5 m above the maze and connected to a screen, allowing the experimenter to watch the test online.\nAnimals were individually placed for a 5-min session in the center of the plus-maze. The number of arm entries and the time spent in arms were recorded. An arm entry is defined as all four paws into the arm.\nOther parameters were recorded: the time spent in open arms, the number of open arm entries, the time spent in enclosed arms, the number of enclosed arm entries and the time spent in the center of the maze.\n1) Enclosed arm entries: entries into the protected arms of the EPM\nas §1"}, "[11]": {"conditions": "SL-Almo vs SL-Wat, 100 mg/kg PO"}, "[12]": {"conditions": "Short Light rats, Almorexant 100 mg/kg PO daily, group mean"}, "[13]": {"conditions": "MBT reanalysis, SL rats, almorexant"}, "[14]": {"conditions": "MBT, SL-Almo vs SL-Wat, 100 mg/kg PO"}, "[15]": {"conditions": "MBT, short light (SL) rats, group mean"}, "[16]": {"conditions": "FST second session, SL-Almo vs SL-Wat, 100 mg/kg PO, 100 mg/kg"}, "[17]": {"conditions": "FST second session, short light (SL) rats, group mean"}, "[18]": {"conditions": "EPM, SL-Almo vs SL-Wat, 100 mg/kg PO, 100 mg/kg"}, "[19]": {"conditions": "EPM, short light (SL) rats, group mean, water vehicle comparison groups"}}, "note": "“Also recorded” adds a separate entry of the source."}
{"molecule": "CNC(=O)[C@@H](c1ccccc1)N1CCc2cc(OC)c(OC)cc2[C@@H]1CCc1ccc(C(F)(F)F)cc1.Cl", "note": "[Almorexant HCl]", "values": [{"measurement": "Ki", "setting": "OxR2 [1]", "value": 0.9, "unit": "nM"}, {"measurement": "IC50", "setting": "OxR2 [2]", "value": 15.6, "unit": "nM"}, {"measurement": "binding and dissociation rates at hOxR1", "setting": "recombinant human OxR1", "value": "fast binding and dissociation rates"}, {"measurement": "classification of antagonism at hOxR1", "setting": "recombinant human OxR1", "value": "competitive antagonist"}, {"measurement": "Kd", "setting": "OxR2 [3]; [3H] Almorexant, human OxR2", "value": 0.17, "unit": "nM"}, {"measurement": "classification of antagonism at hOxR2", "setting": "OxR2 [3]", "value": "non-competitive antagonist"}, {"measurement": "block of the effect of orexin A on firing", "setting": "[4]", "value": "completely block the effect of orexin A"}, {"measurement": "change of Ki over time", "setting": "rat OxR1", "value": "remains relatively unchanged"}, {"measurement": "change of OxR2 Ki over time", "setting": "OxR2 [5]", "value": "decrease over 4 hours"}, {"measurement": "effect on the % Dist Center", "setting": "Wistar female rats [6]; [11]", "value": "Did not significantly modify"}, {"measurement": "effect on the % Time Center", "setting": "Wistar female rats [6]; [11]", "value": "Did not significantly modify"}, {"measurement": "effect on the Distance", "setting": "Wistar female rats [6]; SL-Almo vs SL-Wat, 100 mg/kg PO, listed as Almorexant", "value": "Tended to reduce the decrease in mobility caused by the SL"}, {"measurement": "effect on the Distance", "setting": "Wistar female rats [6]; SL-Almo vs SL-Wat, 100 mg/kg PO, listed as almorexant", "value": "Did not significantly modify"}, {"measurement": "% Dist Cent", "setting": "Wistar female rats [6]; [12]", "value": 9.9, "unit": "%"}, {"measurement": "% Time Cent", "setting": "Wistar female rats [6]; [12]", "value": 6.7, "unit": "%"}, {"measurement": "Distance travelled", "setting": "Wistar female rats [6]; [12]", "value": 8786.5, "unit": "cm"}, {"measurement": "anxiety-like behavior", "setting": "Wistar female rats [6]; almorexant 100 mg/kg PO", "value": "did not induce effect"}, {"measurement": "motor exploratory activity", "setting": "Wistar female rats [6]; almorexant 100 mg/kg PO", "value": "did not modify"}, {"measurement": "marbles greater than ⅓ buried (FIG. 20)", "setting": "Wistar female rats [7]; [13]", "value": "treated with statistical significance"}, {"measurement": "marbles ⅓ buried (FIG. 22)", "setting": "Wistar female rats [7]; [13]", "value": "treated statistically significantly"}, {"measurement": "marbles ⅓ or less buried (FIG. 21)", "setting": "Wistar female rats [7]; [13]", "value": "treated with statistical significance"}, {"measurement": "unburied marbles", "setting": "Wistar female rats [7]; [14]", "value": "Reduced the increase"}, {"measurement": "≧⅔ buried marbles", "setting": "Wistar female rats [7]; [14]", "value": "Reduced the decrease"}, {"measurement": "Number of unburied marbles", "setting": "Wistar female rats [7]; [15]", "value": 5.3}, {"measurement": "number of totally buried", "setting": "Wistar female rats [7]; [15]", "value": 8.9}, {"measurement": "number of ≧⅔ buried marbles", "setting": "Wistar female rats [7]; [15]", "value": 16.3}, {"measurement": "growth rate", "setting": "[8]; SL-Almo vs SL-Veh, OG (FIG. 30)", "value": "consistently found to increase growth rate back to LL levels"}, {"measurement": "body weight (BW, percent of initial BW)", "setting": "[8]; SL-Almo vs SL-Wat, d29 to d54, 100 mg/kg PO", "value": "increased the BW"}, {"measurement": "Body weight in percent of initial body weight (d−4)", "setting": "[8]; d29-t1, during treatment", "value": 164.4, "unit": "%"}, {"measurement": "Body weight in percent of initial body weight (d−4)", "setting": "[8]; d31-t3, during treatment", "value": 167.0, "unit": "%"}, {"measurement": "Body weight in percent of initial body weight (d−4)", "setting": "[8]; d33-t5, during treatment", "value": 168.8, "unit": "%"}, {"measurement": "Body weight in percent of initial body weight (d−4)", "setting": "[8]; d36-t8, during treatment", "value": 173.4, "unit": "%"}, {"measurement": "Body weight in percent of initial body weight (d−4)", "setting": "[8]; d38-t10, during treatment", "value": 175.5, "unit": "%"}, {"measurement": "Body weight in percent of initial body weight (d−4)", "setting": "[8]; d40-t12, during treatment", "value": 176.6, "unit": "%"}, {"measurement": "Body weight in percent of initial body weight (d−4)", "setting": "[8]; d43-t15, during treatment", "value": 179.7, "unit": "%"}, {"measurement": "Body weight in percent of initial body weight (d−4)", "setting": "[8]; d45-t17, during treatment", "value": 181.7, "unit": "%"}, {"measurement": "Body weight in percent of initial body weight (d−4)", "setting": "[8]; d47-t19, during treatment", "value": 183.5, "unit": "%"}, {"measurement": "Body weight in percent of initial body weight (d−4)", "setting": "[8]; d50-t22, during treatment", "value": 185.5, "unit": "%"}, {"measurement": "Body weight in percent of initial body weight (d−4)", "setting": "[8]; d52-t24, during treatment", "value": 187.5, "unit": "%"}, {"measurement": "Body weight in percent of initial body weight (d−4)", "setting": "[8]; d54-t26, during treatment", "value": 187.0, "unit": "%"}, {"measurement": "effect on the swimming time (Swm)", "setting": "Wistar female rats [9]; FST second session, SL-Almo vs SL-Wat, 100 mg/kg PO", "value": "Did not significantly modify"}, {"measurement": "effect on the climbing time (Clb)", "setting": "Wistar female rats [9]; [16]", "value": "increased; also recorded: Tended to increase"}, {"measurement": "effect on the immobility time (Imo)", "setting": "Wistar female rats [9]; [16]", "value": "Decreased"}, {"measurement": "antidepressant-like effect", "setting": "Wistar female rats [9]; FST second session, almorexant 100 mg/kg PO", "value": "induced an antidepressant-like effect"}, {"measurement": "Immobility time (Imo)", "setting": "Wistar female rats [9]; [17]", "value": 111.5, "unit": "s"}, {"measurement": "climbing time (Clb)", "setting": "Wistar female rats [9]; [17]", "value": 68.7, "unit": "s"}, {"measurement": "percentage swimming time (Swim)", "setting": "Wistar female rats [9]; [17]", "value": 119.8, "unit": "s"}, {"measurement": "FST 2 binned climbing time (FIG. 13)", "setting": "Wistar female rats [9]; double blind reanalysis of video, SL-Almo vs SL-Veh", "value": "statistically significant anti-depressant and anti-despair effect"}, {"measurement": "SL-increased anxiety-like behaviors (FIG. 10, enclosed arms)", "setting": "Wistar female rats [10]; EPM reanalysis, OG almorexant", "value": "treated with statistical significance"}, {"measurement": "effect on the % OAE", "setting": "Wistar female rats [10]; [18]", "value": "no significant effect; also recorded: Did not significantly modify"}, {"measurement": "effect on the % TOA", "setting": "Wistar female rats [10]; [18]", "value": "no significant effect; also recorded: Did not significantly modify"}, {"measurement": "effect on the AE", "setting": "Wistar female rats [10]; [18]", "value": "increased; also recorded: Tended to increase"}, {"measurement": "anxiety-like behavior", "setting": "Wistar female rats [10]; EPM, almorexant 100 mg/kg PO", "value": "did not induce effect"}, {"measurement": "motor exploratory activity", "setting": "Wistar female rats [10]; EPM, almorexant 100 mg/kg PO", "value": "increased"}, {"measurement": "Number of arm entries (AE)", "setting": "Wistar female rats [10]; [19]", "value": 23.8}, {"measurement": "Percentage of open arm entries (% OAE)", "setting": "Wistar female rats [10]; [19]", "value": 38.1, "unit": "%"}, {"measurement": "Percentage of time spent in open arms (% TOA)", "setting": "Wistar female rats [10]; [19]", "value": 34.9, "unit": "%"}]}
